Data reported in US20220315554A1, “COMPOUNDS COMPRISING A […] LIGAND AND USE THEREOF” (priority 2019, published 2022).
Numbered stars: 1 amine (or outer) side, 2 acyl side, 3 side chain; on linkers, the order of the positions; unused ones are H or OH. Bridge positions count the residues as written; N and C are the ends. Peptide text beside a SMILES is read from it. * marks the point of attachment. X4 = O=C1CN2CCN3CCN(CC(=O)N4CCN(Cc5cc(C[*:1])cc(C[*:2])c5)CC4)CCN(CC2)CC(=O)[O][In]([O]1)[O]C(=O)C3; X1 = O=C(O)CN1CCN(CC(=O)O)CCN(CC(=O)N2CCN(Cc3cc(C[*:1])cc(C[*:2])c3)CC2)CCN(CC(=O)O)CC1; Hexanoyl = CCCCCC(=O)*

Experiments:
hERG potassium channel = hERG potassium channel (Homo sapiens, UniProt Q12809); experiment: in vitro
recombinant human PREP = molecular target: T1, recombinant human PREP (Homo sapiens, UniProt P48147); experiment: PREP protease activity assay; type: biochemical
T1 construct: purchased R&D systems 4308-SE
T1 sequence (P48147 1-710): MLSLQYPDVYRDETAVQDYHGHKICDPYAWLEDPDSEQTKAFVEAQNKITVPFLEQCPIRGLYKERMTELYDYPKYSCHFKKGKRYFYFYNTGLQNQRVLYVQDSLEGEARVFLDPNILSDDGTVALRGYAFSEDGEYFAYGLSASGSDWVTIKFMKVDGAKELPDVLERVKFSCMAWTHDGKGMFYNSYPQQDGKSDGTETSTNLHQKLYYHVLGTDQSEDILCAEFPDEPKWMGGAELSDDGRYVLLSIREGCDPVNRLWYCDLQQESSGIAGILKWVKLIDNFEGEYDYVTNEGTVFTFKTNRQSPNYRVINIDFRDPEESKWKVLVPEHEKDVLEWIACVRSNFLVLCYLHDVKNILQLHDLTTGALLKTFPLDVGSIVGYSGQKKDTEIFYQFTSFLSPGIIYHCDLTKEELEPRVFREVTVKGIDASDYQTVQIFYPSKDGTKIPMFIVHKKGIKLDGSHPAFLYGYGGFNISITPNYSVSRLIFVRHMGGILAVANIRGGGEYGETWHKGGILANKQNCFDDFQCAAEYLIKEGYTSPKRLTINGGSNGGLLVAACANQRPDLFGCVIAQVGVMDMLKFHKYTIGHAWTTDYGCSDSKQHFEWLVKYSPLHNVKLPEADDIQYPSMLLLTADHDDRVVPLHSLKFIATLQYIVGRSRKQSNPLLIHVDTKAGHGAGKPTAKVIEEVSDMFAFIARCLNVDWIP

NMDA = conditions: 10 μM
[1] = test system: Ca2+ channel (L, dihydropyridine site); conditions: 10 μM
[2] = Plasma stability assay, human plasma; type: in vitro ADME; conditions: 24 h incubation, 37° C., read-out: % intact compound remaining after incubation, Human plasma
Na+ channel (site 2) = experiment: SafetyScreen44: Na+ channel (site 2) (antagonist radioligand); type: binding; conditions: 10 μM
KV channel = conditions: 10 μM
BZD (central) = conditions: 10 μM
Recombinant human DPP4 = molecular target: T2, Recombinant human DPP4 (Homo sapiens, UniProt P27487); experiment: DPP4 protease activity assay; type: biochemical
T2 construct: purchased R&D systems 9168-SE

Human recombinant FAP [3] = molecular target: T3, Human recombinant FAP (Homo sapiens, UniProt Q12884); experiment: Surface plasmon resonance (Biacore) assay; type: binding
T3 sequence (Q12884 1-760): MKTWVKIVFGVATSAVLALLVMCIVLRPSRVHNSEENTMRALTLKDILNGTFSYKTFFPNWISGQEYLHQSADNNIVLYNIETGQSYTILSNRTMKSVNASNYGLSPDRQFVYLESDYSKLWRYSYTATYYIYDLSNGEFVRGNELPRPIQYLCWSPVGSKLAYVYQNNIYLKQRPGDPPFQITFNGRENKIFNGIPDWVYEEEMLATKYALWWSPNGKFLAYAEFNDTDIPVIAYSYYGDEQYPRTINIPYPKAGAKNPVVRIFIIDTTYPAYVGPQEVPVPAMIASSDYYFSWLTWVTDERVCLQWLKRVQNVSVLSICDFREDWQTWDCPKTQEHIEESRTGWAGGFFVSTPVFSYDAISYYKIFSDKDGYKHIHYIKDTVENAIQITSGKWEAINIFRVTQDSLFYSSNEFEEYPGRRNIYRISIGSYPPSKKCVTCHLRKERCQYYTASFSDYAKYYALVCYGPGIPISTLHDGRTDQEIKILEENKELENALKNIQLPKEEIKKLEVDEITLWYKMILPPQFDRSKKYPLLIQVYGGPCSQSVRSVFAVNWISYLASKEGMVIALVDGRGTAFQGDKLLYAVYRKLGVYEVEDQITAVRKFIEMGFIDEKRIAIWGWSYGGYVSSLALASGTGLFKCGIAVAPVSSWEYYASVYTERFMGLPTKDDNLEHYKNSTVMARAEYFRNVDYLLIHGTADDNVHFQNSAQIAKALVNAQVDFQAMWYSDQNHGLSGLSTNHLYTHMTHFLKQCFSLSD

proteases [4] = molecular target: T4, proteases (Hepatitis C virus genotype 1b, UniProt P26663, R1181Q); experiment: biochemical; conditions: read-out: Percentage inhibition (%)
T4 construct: BPS Biosciences (contract assay)

proteases [5] = molecular target: T5, proteases (Hepatitis C virus genotype 1b, UniProt P26663); experiment: biochemical; conditions: read-out: Percentage inhibition (%)
T5 construct: BPS Biosciences (contract assay)

proteases [6] = molecular target: T6, proteases (Hepatitis C virus genotype 1a, UniProt P27958, D1194V); experiment: biochemical; conditions: read-out: Percentage inhibition (%)
T6 construct: BPS Biosciences (contract assay)

proteases [7] = molecular target: T7, proteases (Hepatitis C virus genotype 1b, UniProt P26663, D1194V); experiment: biochemical; conditions: read-out: Percentage inhibition (%)
T7 construct: BPS Biosciences (contract assay)

proteases [8] = molecular target: T8, proteases (Hepatitis C virus genotype 1b, UniProt P26663, R1181K); experiment: biochemical; conditions: read-out: Percentage inhibition (%)
T8 construct: BPS Biosciences (contract assay)

in vitro = conditions: rat, plasma
[9] = molecular target: T9, FAP-expressing human WI-38 fibroblasts (Homo sapiens, UniProt Q12884); experiment: Competitive FACS binding assay; conditions: pIC50 Category (FACS), competition with 3 nM Cy5-labeled compound, WI-38 fibroblasts, 4° C., 1 hour
T9 construct: FAP-expressing human WI-38 fibroblasts (ECACC) were cultured in EMEM; host or cells: WI-38 human fibroblasts
T9 sequence (Q12884 1-760): T3 sequence (Q12884 1-760)
Method: Cells were analyzed in an Attune NxT flow cytometer. […]

Human recombinant FAP [10] = molecular target: T3, Human recombinant FAP; experiment: FRET-based FAP protease activity assay; type: biochemical; parameters: purchased R&D systems 3715-SE; conditions: pIC50 Category (Activity), recombinant human FAP, FRET substrate, 37° C.
AR (h) = AR (h) (Homo sapiens, UniProt P10275, T878A); experiment: biochemical; conditions: read-out: % Inhibition of Specific Binding
[11] = Plasma stability assay, mouse plasma; type: in vitro ADME; conditions: 24 h incubation, 37° C., read-out: % intact compound remaining after incubation, Mouse plasma

Row | SMILES | IC50 (recombinant human PREP) [nM] | remaining at 24 h, 9.8 µM [2] [%] | IC50 (Recombinant human DPP4) [nM] | Kd (Human recombinant FAP [3]) [nM] | remaining at 24 h, 9.8 µM (in vitro) [%] | IC50 [9] [nM] | IC50 (Human recombinant FAP [10]) [nM] | remaining at 24 h, 9.8 µM [11] [%] | also measured
1 | CCCCCC(=O)N[C@H]1CSCc2cc(cc(CN3CCN(C(=O)CN4CCN(CC(=O)O)CCN(CC(=O)O)CCN(CC(=O)O)CC4)CC3)c2)CSC[C@@H](C(=O)N[C@@H](CC(=O)O)C(N)=O)NC(=O)[C@H](Cc2ccccc2)NC(=O)[C@H](CCC(N)=O)NC(=O)[C@H]([C@@H](C)O)NC(=O)[C@@H]2CCCN2C(=O)[C@@H]2CCCN2C1=O [3BP-3407, Hex-[Cys(tMeBn(DOTA-PP))-Pro-Pro-Thr-Gln-Phe-Cys]-Asp-NH2] (Hexanoyl-CPPTQFCD-NH2; linker 1-7 via X1) | > 1000 | 100 | > 1000 | < 10 | 100 | < 10 | < 10 | 79 | inhibition at 10 µM (hERG potassium channel): 2%; % Inhibition of Specific Binding (NMDA): 9%; % Inhibition of Specific Binding [1]: 42%; % Inhibition of Specific Binding (Na+ channel (site 2)): −7%; % Inhibition of Specific Binding (KV channel): −5%; % Inhibition of Specific Binding (BZD (central)): −9%; inhibition at 1 µM (proteases [4]): 0%; inhibition at 10 µM (proteases [4]): 2%; inhibition at 1 µM (proteases [5]): 1%; inhibition at 10 µM (proteases [5]): 5%; inhibition at 1 µM (proteases [6]): 1%; inhibition at 10 µM (proteases [6]): -68%; inhibition at 1 µM (proteases [7]): 1%; inhibition at 10 µM (proteases [7]): -6%; inhibition at 1 µM (proteases [8]): -2%; inhibition at 10 µM (proteases [8]): 5%; inhibition at 10 µM (AR (h)): 3%
2 | CCCCCC(=O)N[C@H]1CSCc2cccc(c2)CSC[C@@H](C(=O)N[C@@H](CCCCNC(=O)CN2CCN(CC(=O)O)CCN(CC(=O)O)CCN(CC(=O)O)CC2)CC(=O)O)NC(=O)[C@H](Cc2ccccc2)NC(=O)[C@H](CCC(N)=O)NC(=O)[C@H]([C@@H](C)O)NC(=O)[C@@H]2CCCN2C(=O)[C@@H]2CCCN2C1=O [3BP-3397, Hex-[Cys(3MeBn)-Pro-Pro-Thr-Gln-Phe-Cys]-Bhk(DOTA)-OH] | > 1000 | 100 | > 1000 | < 10 | – | < 10 | < 10 | 92 | –
3 | CCCC[C@H](NC(=O)CCC(=O)NCCCOCCOCCOCCCNC(=O)CN1CCN(CC(=O)O)CCN(CC(=O)O)CCN(CC(=O)O)CC1)C(=O)N[C@H]1CSCc2cccc(c2)CSC[C@@H](C(=O)NCCC(=O)O)NC(=O)[C@H](Cc2ccccc2)NC(=O)[C@H](CCC(N)=O)NC(=O)[C@H]([C@@H](C)O)NC(=O)[C@@H]2CCCN2C(=O)[C@@H]2CCCN2C1=O [3BP-3398, DOTA-Ttds-Nle-[Cys(3MeBn)-Pro-Pro-Thr-Gln-Phe-Cys]-Bal-OH] | > 1000 | 99 | > 1000 | < 10 | – | < 10 | < 10 | 94 | –
4 | CCCCCC(=O)N[C@H]1CSCc2cc(cc(CN3CCN(C(=O)CN4CCN5CCN6CCN(CC4)CC(=O)[O][In]([O]C(=O)C6)[O]C(=O)C5)CC3)c2)CSC[C@@H](C(=O)N[C@@H](CC(=O)O)C(N)=O)NC(=O)[C@H](Cc2ccccc2)NC(=O)[C@H](CCC(N)=O)NC(=O)[C@H]([C@@H](C)O)NC(=O)[C@@H]2CCCN2C(=O)[C@@H]2CCCN2C1=O [3BP-3590, Indium-Complex of Hex-[Cys(tMeBn(DOTA-PP))-Pro-Pro-Thr-Gln-Phe-Cys]-Asp-NH2] (Hexanoyl-CPPTQFCD-NH2; linker 1-7 via X4) | – | 94 | – | < 10 | 100 | < 10 | < 10 | 100 | –
